Reference: patent publication US20170226081A1, “GLUCOSE TRANSPORT INHIBITORS” (Bayer Pharma Aktiengesellschaft, priority 2014, published 2017)

Biological target: T1, GLUT1 (Homo sapiens, UniProt P11166)
T1 construct: endogenous in cells
T1 sequence (P11166 1-492): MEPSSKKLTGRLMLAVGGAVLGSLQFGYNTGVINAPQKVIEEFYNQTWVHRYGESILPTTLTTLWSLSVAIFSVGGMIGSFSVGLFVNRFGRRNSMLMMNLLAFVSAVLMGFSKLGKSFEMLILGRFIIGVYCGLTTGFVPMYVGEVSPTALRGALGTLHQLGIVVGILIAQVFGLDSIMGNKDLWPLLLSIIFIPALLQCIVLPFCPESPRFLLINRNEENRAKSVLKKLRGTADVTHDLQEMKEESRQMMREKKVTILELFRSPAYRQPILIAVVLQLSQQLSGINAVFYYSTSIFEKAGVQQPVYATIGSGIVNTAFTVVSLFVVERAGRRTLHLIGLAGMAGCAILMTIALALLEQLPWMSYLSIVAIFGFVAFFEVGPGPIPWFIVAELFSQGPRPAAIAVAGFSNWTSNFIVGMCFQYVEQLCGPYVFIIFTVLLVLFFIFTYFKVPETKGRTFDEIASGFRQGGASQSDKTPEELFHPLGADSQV
Assay: Indirect measurement of GLUT activity by quantification of intracellular ATP levels (glucose induced ATP increase)
Type: cell-based
Details: DLD1 cells; 1 mM glucose, 1 uM Rotenone, 15 min; standardized to cytochalasin B IC50 values; read-out: IC50 regarding glucose induced ATP increase (GLUT1 inhibition)
Text: It is well known that a combination of small-molecule inhibitors of mitochondrial electron transport chain and glucose catabolism synergistically suppress ATP production and impair cellular viability (Ulanovskaya et al., 2008, 2011; Liu, et al. 2001). We therefore used DLD1 or CHO-K1 cells in combination with an oxidative phosphorylation inhibitor to identify GLUT inhibitors. Cell lines were maintained in DMEM medium supplemented with 10% FCS and 1% Penicillin-Streptomycin solution and 2% Glutamax. The cells were treated with trypsin and seeded into 384 plates at a density of 4000 cells/well. The cells were then cultured overnight in glucose free media containing 1% FCS to reduce intracellular ATP levels. After 24 h the cells were incubated at 37° C. containing the appropriate glucose or in case of GLUT2 fructose concentration (1 mM and 30 mM respectively) with or without compounds and 1 uM Rotenone for 15 min. The CellTiter-Glo® Luminescent Cell Viability Assay from Promega was then used to measure ATP levels. Compounds able to reduce the ATP Levels within 15 min of glucose application were considered to be glucose uptake inhibitors.

Row | SMILES | IC50 [nM]
1 | CC(c1ccc(C#N)cc1)n1cc(NC(=O)c2cc(C(N)=O)nc3ccccc23)c(C(F)(F)F)n1 (racemic) [Example 40, (±)—N^4-{1-[1-(4-cyanophenyl)ethyl]-3-(trifluoromethyl)-1H-pyrazol-4-yl}quinoline-2,4-dicarboxamide] | 32
2 | COc1cc(C(=O)Nc2cn(Cc3ccc(F)cc3)nc2C)c2ccccc2n1 [Example 3, N-[1-(4-fluorobenzyl)-3-methyl-1H-pyrazol-4-yl]-2-methoxyquinoline-4-carboxamide] | 150
3 | Cc1nn(Cc2ccc(F)cc2)cc1NC(=O)c1cc(C(F)(F)F)nc2ccc(Br)cc12 [Example 4, 6-bromo-N-[1-(4-fluorobenzyl)-3-methyl-1H-pyrazol-4-yl]-2-(trifluoromethyl)quinoline-4-carboxamide] | 111
4 | Cc1nn(Cc2ccc(F)cc2)cc1NC(=O)c1cc(C2CC2)nc2ccc(F)cc12 [Example 6, 2-cyclopropyl-6-fluoro-N-[1-(4-fluorobenzyl)-3-methyl-1H-pyrazol-4-yl]quinoline-4-carboxamide] | 125
5 | Cc1nn(Cc2ccc(F)cc2)cc1NC(=O)c1cc(C(F)(F)F)nc2c(Cl)cc(Cl)cc12 [Example 7, 6,8-dichloro-N-[1-(4-fluorobenzyl)-3-methyl-1H-pyrazol-4-yl]-2-(trifluoromethyl)quinoline-4-carboxamide] | 176
6 | COc1cc(C(=O)Nc2cn(Cc3ccc(C#N)cc3)nc2C)c2ccccc2n1 [Example 10, N-[1-(4-cyanobenzyl)-3-methyl-1H-pyrazol-4-yl]-2-methoxyquinoline-4-carboxamide] | 79
7 | COc1ccc(Cn2cc(NC(=O)c3cc(OC)nc4ccccc34)c(C)n2)cc1 [Example 11, 2-methoxy-N-[1-(4-methoxybenzyl)-3-methyl-1H-pyrazol-4-yl]quinoline-4-carboxamide] | 21
8 | COc1ccc(Cn2cc(NC(=O)c3cc(C(F)(F)F)nc4ccc(Br)cc34)c(C)n2)cc1 [Example 12, 6-bromo-N-[1-(4-methoxybenzyl)-3-methyl-1H-pyrazol-4-yl]-2-(trifluoromethyl)quinoline-4-carboxamide] | 29
9 | COc1ccc(Cn2cc(NC(=O)c3cc(C(N)=O)nc4ccccc34)c(C)n2)cc1 [Example 13, N^4-[1-(4-methoxybenzyl)-3-methyl-1H-pyrazol-4-yl]quinoline-2,4-dicarboxamide] | 2.3
10 | Cc1nn(Cc2ccccc2C#N)cc1NC(=O)c1cc(C(F)(F)F)nc2ccc(Br)cc12 [Example 14, 6-bromo-N-[1-(2-cyanobenzyl)-3-methyl-1H-pyrazol-4-yl]-2-(trifluoromethyl)quinoline-4-carboxamide] | 97
11 | Cc1nn(Cc2ccccc2C#N)cc1NC(=O)c1cc(C(N)=O)nc2ccccc12 [Example 16, N^4-[1-(2-cyanobenzyl)-3-methyl-1H-pyrazol-4-yl]quinoline-2,4-dicarboxamide] | 137
12 | COC(=O)c1nn(Cc2ccc(F)cc2)cc1NC(=O)c1cc(C(F)(F)F)nc2ccc(Br)cc12 [Example 17, methyl 4-({[6-bromo-2-(trifluoromethyl)quinolin-4-yl]carbonyl}amino)-1-(4-fluorobenzyl)-1H-pyrazole-3-carboxylate] | 64
13 | CN(C)C(=O)c1nn(Cc2ccc(F)cc2)cc1NC(=O)c1cc(C(F)(F)F)nc2ccc(Br)cc12 [Example 19, 6-bromo-N-[3-(dimethylcarbamoyl)-1-(4-fluorobenzyl)-1H-pyrazol-4-yl]-2-(trifluoromethyl)quinoline-4-carboxamide] | 20
14 | CNC(=O)c1nn(Cc2ccc(F)cc2)cc1NC(=O)c1cc(C(F)(F)F)nc2ccc(Br)cc12 [Example 22, 6-bromo-N-[1-(4-fluorobenzyl)-3-(methylcarbamoyl)-1H-pyrazol-4-yl]-2-(trifluoromethyl)quinoline-4-carboxamide] | 20100
15 | N#Cc1ccc(Cn2cc(NC(=O)c3cc(C(F)(F)F)nc4ccc(Br)cc34)c(C(=O)NCCO)n2)cc1 [Example 26, 6-bromo-N-{1-(4-cyanobenzyl)-3-[(2-hydroxyethyl)carbamoyl]-1H-pyrazol-4-yl}-2-(trifluoromethyl)quinoline-4-carboxamide] | 7040

Second part, the compound after the results:

Row | IC50 [nM] | SMILES
16 | 505 | Cc1nn(Cc2ccc(F)cc2)cc1NC(=O)c1cc(C(F)(F)F)nc2cc(F)c(F)cc12 [Example 2, 6,7-difluoro-N-[1-(4-fluorobenzyl)-3-methyl-1H-pyrazol-4-yl]-2-(trifluoromethyl)quinoline-4-carboxamide]
17 | 15 | Cc1nn(Cc2ccc(F)cc2)cc1NC(=O)c1cc(C(N)=O)nc2ccccc12 [Example 5, N^4-[1-(4-fluorobenzyl)-3-methyl-1H-pyrazol-4-yl]quinoline-2,4-dicarboxamide]
18 | 21 | Cc1nn(Cc2ccc(C#N)cc2)cc1NC(=O)c1cc(C(F)(F)F)nc2ccc(Br)cc12 [Example 8, 6-bromo-N-[1-(4-cyanobenzyl)-3-methyl-1H-pyrazol-4-yl]-2-(trifluoromethyl)quinoline-4-carboxamide]
19 | 116 | COc1cc(C(=O)Nc2cn(Cc3ccccc3C#N)nc2C)c2ccccc2n1 [Example 15, N-[1-(2-cyanobenzyl)-3-methyl-1H-pyrazol-4-yl]-2-methoxyquinoline-4-carboxamide]
20 | 6.5 | O=C(O)c1nn(Cc2ccc(F)cc2)cc1NC(=O)c1cc(C(F)(F)F)nc2ccc(Br)cc12 [Example 18, 4-({[6-bromo-2-(trifluoromethyl)quinolin-4-yl]carbonyl}amino)-1-(4-fluorobenzyl)-1H-pyrazole-3-carboxylic acid]
21 | 2000 | O=C(NCCO)c1nn(Cc2ccc(F)cc2)cc1NC(=O)c1cc(C(F)(F)F)nc2ccc(Br)cc12 [Example 20, 6-bromo-N-{1-(4-fluorobenzyl)-3-[(2-hydroxyethyl)carbamoyl]-1H-pyrazol-4-yl}-2-(trifluoromethyl)quinoline-4-carboxamide]
22 | 1150 | NC(=O)c1nn(Cc2ccc(F)cc2)cc1NC(=O)c1cc(C(F)(F)F)nc2ccc(Br)cc12 [Example 21, 6-bromo-N-[3-carbamoyl-1-(4-fluorobenzyl)-1H-pyrazol-4-yl]-2-(trifluoromethyl)quinoline-4-carboxamide]
23 | 20100 | COCCNC(=O)c1nn(Cc2ccc(F)cc2)cc1NC(=O)c1cc(C(F)(F)F)nc2ccc(Br)cc12 [Example 23, 6-bromo-N-{1-(4-fluorobenzyl)-3-[(2-methoxyethyl)carbamoyl]-1H-pyrazol-4-yl}-2-(trifluoromethyl)quinoline-4-carboxamide]
24 | 1650 | COC(=O)c1nn(Cc2ccc(C#N)cc2)cc1NC(=O)c1cc(C(F)(F)F)nc2ccc(Br)cc12 [Example 24, methyl 4-({[6-bromo-2-(trifluoromethyl)quinolin-4-yl]carbonyl}amino)-1-(4-cyanobenzyl)-1H-pyrazole-3-carboxylate]
25 | 10200 | N#Cc1ccc(Cn2cc(NC(=O)c3cc(C(F)(F)F)nc4ccc(Br)cc34)c(C(=O)O)n2)cc1 [Example 25, 4-({[6-bromo-2-(trifluoromethyl)quinolin-4-yl]carbonyl}amino)-1-(4-cyanobenzyl)-1H-pyrazole-3-carboxylic acid]
26 | 893 | CNC(=O)c1nn(Cc2ccc(C#N)cc2)cc1NC(=O)c1cc(C(F)(F)F)nc2ccc(Br)cc12 [Example 27, 6-bromo-N-[1-(4-cyanobenzyl)-3-(methylcarbamoyl)-1H-pyrazol-4-yl]-2-(trifluoromethyl)quinoline-4-carboxamide]
